Experimental data from patent US10111890B2, “9-aminomethyl minocycline compounds and uses thereof” (Paratek Pharmaceuticals, Inc., priority 2016, dated 2018).
Where two headings read alike, the source gives them in different places.

Experiments:
[1] = Phase 1 food-effect study: safety and tolerability; format: in vivo, human
Protocol: Safety and tolerability was assessed by: Adverse events (AEs); vital sign measurements at multiple time-points within 24 hours post-dose in each treatment period; and clinical laboratory tests 24 hours post-dose in each treatment period.

[2] = Phase 1 multiple oral dose study: urine pharmacokinetics; format: in vivo, human; conditions: for CL renal: human
Protocol: Urine samples were only collected from a subset of subjects because analysis of urine PK was added by an amendment to the study protocol after the study was already underway. […] Additional parameters […] Ae0-24 were also calculated.

[3] = Phase 3 oral omadacycline vs oral linezolid in ABSSSI: safety (adverse events, TEAEs, vital signs, ECG, laboratory); format: in vivo; conditions: safety population
Text: An Adverse Event (AE) is any untoward, undesired, or unplanned event in the form of signs, symptoms, disease, or laboratory or physiologic observations occurring in a person given a test article or in a clinical study. […] An AE includes, but is not limited to, the following: any clinically significant worsening of a preexisting condition; an AE occurring from overdose of a test article, whether accidental or intentional; overdose is a dose greater than that specified in the protocol; an AE occurring from abuse (e.g., use for nonclinical reasons) of a test article; and an AE that has been associated with the discontinuation of the use of a test article.
The severity (or intensity) of an AE was classified using the following criteria:
Concerning relatedness, causality (i.e., whether there was a reasonable possibility that test article caused the event) for all AEs and SAEs was assessed.
Safety variables include the incidence rate of AEs, change in vital signs, ECG parameters and laboratory test results obtained during the course of the study. For safety analyses, subjects were analyzed according to the treatment actually received.
Summary tables were provided for all treatment-emergent adverse events (TEAEs). A TEAE is defined as an AE with a start date and time on or after the first dose of test article. […] Additional tabulations provide summaries by SOC and PT of subjects experiencing SAEs, severe TEAEs, TEAEs judged to be related to test article, TEAEs leading to discontinuation of test article, and TEAEs of special interest.
The following variables were analyzed descriptively: Vital signs (systolic and diastolic BP, pulse rate, body temperature, respiratory rate), including change from Screening by visit; Clinically notable vital signs (meeting predefined criteria as specified in the SAP) by visit. Subjects with notable vital signs data were listed.
ECG data (RR interval, PR interval, QRS interval, QTc, QTc Bazett's Correction Formula [QTcB], and QTc Fridericia's Correction Formula [QTcF]) was summarized descriptively at each scheduled evaluation, and for the overall worst post-Screening value. Changes from Screening at each visit that a 12-lead ECG was obtained was also provided. An outlier analysis was conducted based on the worst post-Screening value.
The following variables were analyzed descriptively: Laboratory variables by visit; Change from Screening of laboratory variables by visit; and Clinically notable laboratory values (meeting predefined criteria specified in the SAP) by visit.

[4] = Prior Phase 1 studies: bioavailability / bioequivalence of oral tablet formulation; parameters: species or system human; conditions: in vivo; for bioavailability: human
[5] = single 300 mg oral dose, healthy subjects

## CN(C)c1cc(CNCC(C)(C)C)c(O)c2c1C[C@H]1C[C@H]3[C@H](N(C)C)C(O)=C(C(N)=O)C(=O)[C@@]3(O)C(O)=C1C2=O [Omadacycline, 9-[(2,2-dimethyl-propylamino)-methyl]-minocycline]
[1]; [5]
  serious AE (SAE): no subject experienced a serious AE
  treatment-related adverse events, clinically relevant changes in laboratory values or vital signs: No treatment-related adverse events or clinically relevant changes in laboratory values, or vital signs occurred
[1]; single 300 mg oral dose, all other treatment groups, all measured time points
  median change from baseline in heart rate: ≤ 3 bpm
[1]; single oral dose (300 mg), healthy subjects
  tolerability: well tolerated
[2]; 300 mg, Day 1 (n = 2)
  Ae0-24, Mean (CV): 20.37 (8.3) mg
  Fe0-24, Mean (CV): 6.79 (8.3) %
[2]; 300 mg, Day 5 (n = 3)
  Ae0-24, Mean (CV): 26.14 (14.6) mg
  Fe0-24, Mean (CV): 8.71 (14.6) %
[2]; 450 mg, Day 1 (n = 3)
  Ae0-24, Mean (CV): 25.06 (16.8) mg
  Fe0-24, Mean (CV): 5.57 (16.8) %
[2]; 450 mg, Day 5 (n = 5)
  Ae0-24, Mean (CV): 30.81 (33.0) mg
  Fe0-24, Mean (CV): 6.85 (33.0) %
[2]; 600 mg, Day 1 (n = 1)
  Ae0-24, Mean (CV): 31.96 mg
  Fe0-24, Mean (CV): 5.33%
[2]; 600 mg, Day 5 (n = 4)
  Ae0-24, Mean (CV): 51.82 (14.8) mg
  Fe0-24, Mean (CV): 8.64 (14.8) %
[2]; in vivo, 300 mg, Day 1 (n = 2), read-out: CLr, Mean (CV) (converted)
  CL renal: 50.2 mL/min
[2]; in vivo, 300 mg, Day 5 (n = 3), read-out: CLr, Mean (CV) (converted)
  CL renal: 54.7 mL/min
[2]; in vivo, 450 mg, Day 1 (n = 3), read-out: CLr, Mean (CV) (converted)
  CL renal: 46.7 mL/min
[2]; in vivo, 450 mg, Day 5 (n = 5), read-out: CLr, Mean (CV) (converted)
  CL renal: 39.7 mL/min
[2]; in vivo, 600 mg, Day 1 (n = 1), read-out: CLr, Mean (CV) (converted)
  CL renal: 69.5 mL/min
[2]; in vivo, 600 mg, Day 5 (n = 4), read-out: CLr, Mean (CV) (converted)
  CL renal: 50.8 mL/min
[2]; urine, oral, all omadacycline dose groups, Day 1, read-out: Renal clearance (CLr)
  CL renal: 46.7 to 70 mL/min
[2]; urine, oral, all omadacycline dose groups, Day 5, read-out: Renal clearance (CLr)
  CL renal: 40 to 55 mL/min
[3]
  Subjects who died: 0 n (%)
  Subjects with at Least One Adverse Events (AE): 201 (54.6) n (%)
  Subjects with at Least One Drug-Related Serious TEAE: 0 n (%)
  Subjects with at Least One Drug-Related TEAE: 139 (37.8) n (%)
  Subjects with at Least One Serious TEAE: 5 (1.4) n (%)
  Subjects with at Least One Serious TEAE leading to Death: 0 n (%)
  Subjects with at Least One Serious TEAEs leading to premature discontinuation of test article: 3 (0.8) n (%)
  Subjects with at Least One Severe TEAE: 6 (1.6) n (%)
  Subjects with at Least One TEAE Leading to Study Drug Discontinuation: 6 (1.6) n (%)
  Subjects with at Least One TEAE leading to dose interruption: 0 n (%)
  Subjects with at Least One TEAE leading to premature discontinuation of study: 3 (0.8) n (%)
  Subjects with at Least One TEAE leading to premature discontinuation of test article: 6 (1.6) n (%)
  TEAE leading to study drug discontinuation: Cellulitis: 1 (0.3) n (%)
  TEAE leading to study drug discontinuation: Gastrointestinal Disorders (SOC): 1 (0.3) n (%)
  TEAE leading to study drug discontinuation: Haematemesis: 1 (0.3) n (%)
  TEAE leading to study drug discontinuation: Infections And Infestations (SOC): 4 (1.1) n (%)
  TEAE leading to study drug discontinuation: Nausea: 1 (0.3) n (%)
  TEAE leading to study drug discontinuation: Pregnancy: 1 (0.3) n (%)
  TEAE leading to study drug discontinuation: Pregnancy, Puerperium And Perinatal Conditions (SOC): 1 (0.3) n (%)
  TEAE leading to study drug discontinuation: Staphylococcal Bacteraemia: 1 (0.3) n (%)
  TEAE leading to study drug discontinuation: Subcutaneous Abscess: 1 (0.3) n (%)
  TEAE leading to study drug discontinuation: Vomiting: 1 (0.3) n (%)
  TEAE leading to study drug discontinuation: Wound Infection: 1 (0.3) n (%)
  TEAE: Alanine Aminotransferase Increased: 19 (5.2) n (%)
  TEAE: Aspartate Aminotransferase Increased: 17 (4.6) n (%)
  TEAE: Cellulitis: 12 (3.3) n (%)
  TEAE: Headache: 13 (3.5) n (%)
  TEAE: Wound Infection: 22 (6.0) n (%)
  Total Number of AEs: 468
  Total Number of TEAEs: 448
[3]; AE overview
  Subjects with at Least One TEAE: 197 (53.5) n (%)
[3]; all severities
  TEAE: Abdominal Pain Upper: 10 (2.7) n (%)
  TEAE: Diarrhea: 15 (4.1) n (%)
  TEAE: Nausea: 111 (30.2) n (%)
  TEAE: Vomiting: 62 (16.8) n (%)
[3]; highest severity Mild
  Subjects with at Least One TEAE, Mild: 120 (32.6) n (%)
  TEAE: Abdominal Pain Upper, Mild: 9 (2.4) n (%)
  TEAE: Abdominal Pain, Mild: 3 (0.8) n (%)
  TEAE: Diarrhea, Mild: 13 (3.5) n (%)
  TEAE: Gastrointestinal Disorders (SOC), Mild: 105 (28.5) n (%)
  TEAE: Nausea, Mild: 83 (22.6) n (%)
  TEAE: Vomiting, Mild: 44 (12.0) n (%)
[3]; highest severity Moderate
  Subjects with at Least One TEAE, Moderate: 71 (19.3) n (%)
  TEAE: Abdominal Pain Upper, Moderate: 1 (0.3) n (%)
  TEAE: Abdominal Pain, Moderate: 3 (0.8) n (%)
  TEAE: Diarrhea, Moderate: 2 (0.5) n (%)
  TEAE: Gastrointestinal Disorders (SOC), Moderate: 39 (10.6) n (%)
  TEAE: Nausea, Moderate: 28 (7.6) n (%)
  TEAE: Vomiting, Moderate: 18 (4.9) n (%)
[3]; highest severity Severe
  Subjects with at Least One TEAE, Severe: 6 (1.6) n (%)
  TEAE: Abdominal Pain Upper, Severe: 0 n (%)
  TEAE: Abdominal Pain, Severe: 0 n (%)
  TEAE: Diarrhea, Severe: 0 n (%)
  TEAE: Gastrointestinal Disorders (SOC), Severe: 0 n (%)
  TEAE: Nausea, Severe: 0 n (%)
  TEAE: Vomiting, Severe: 0 n (%)
[3]; most frequent (≥2%) TEAEs table
  Subjects with at Least One TEAE: 197 (53.5) n (%)
[4]
  bioavailability: 35%
  bioequivalence of oral and i.v. dose (based on serum AUC): bioequivalent
[4]; phase 3 tablet formulation (tosylate salt), fasting conditions, read-out: absolute bioavailability
  bioavailability: 34.5%
